Laboratory results as given in US12679822B2, “Alkenyl pyrimidine compound, preparation method therefor, and application thereof” (Hongyun Biotech Co., Ltd., priority 2020, dated 2026).

How the values were obtained:
Format in all cases: cell-based
[1] = target: BaF3 cell lines stably transfected with kinase EGFR Del/T790M (Homo sapiens, UniProt P00533, T790M, cells depend on it, form not given); test: Growth inhibition of BaF3 cell line stably transfected with kinase EGFR Del/T790M (MTS); settings: 48 h, read-out: growth inhibitory activity IC50, Del/T790M
Procedure, shortened: (§1)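 Transfected BaF3 cells exposed 48 h at 37 °C to 8-point, 1/3-step dilutions from 10 μM top in 0.1% DMSO, duplicates. MTS/PES added for 1-4 h, OD 490 nm read; inhibition normalised to DMSO and cell-free blank, IC50 fitted from inhibition rates.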

[2] = target: BaF3 cell lines stably transfected with kinase EGFR Del (Homo sapiens, UniProt P00533, cells depend on it, form not given); test: Growth inhibition of BaF3 cell line stably transfected with kinase EGFR Del (MTS); settings: 48 h, read-out: growth inhibitory activity IC50, Del
Procedure, shortened: as §1

[3] = target: BaF3 cell lines stably transfected with kinase EGFR L858R/T790M (Homo sapiens, UniProt P00533, T790M/L858R, cells depend on it); test: Growth inhibition of BaF3 cell line stably transfected with kinase EGFR L858R/T790M (MTS); settings: 48 h, read-out: growth inhibitory activity IC50, L858R/T790M
Chain of BaF3 cell lines stably transfected with kinase EGFR L858R/T790M (P00533 whole entry T790M/L858R): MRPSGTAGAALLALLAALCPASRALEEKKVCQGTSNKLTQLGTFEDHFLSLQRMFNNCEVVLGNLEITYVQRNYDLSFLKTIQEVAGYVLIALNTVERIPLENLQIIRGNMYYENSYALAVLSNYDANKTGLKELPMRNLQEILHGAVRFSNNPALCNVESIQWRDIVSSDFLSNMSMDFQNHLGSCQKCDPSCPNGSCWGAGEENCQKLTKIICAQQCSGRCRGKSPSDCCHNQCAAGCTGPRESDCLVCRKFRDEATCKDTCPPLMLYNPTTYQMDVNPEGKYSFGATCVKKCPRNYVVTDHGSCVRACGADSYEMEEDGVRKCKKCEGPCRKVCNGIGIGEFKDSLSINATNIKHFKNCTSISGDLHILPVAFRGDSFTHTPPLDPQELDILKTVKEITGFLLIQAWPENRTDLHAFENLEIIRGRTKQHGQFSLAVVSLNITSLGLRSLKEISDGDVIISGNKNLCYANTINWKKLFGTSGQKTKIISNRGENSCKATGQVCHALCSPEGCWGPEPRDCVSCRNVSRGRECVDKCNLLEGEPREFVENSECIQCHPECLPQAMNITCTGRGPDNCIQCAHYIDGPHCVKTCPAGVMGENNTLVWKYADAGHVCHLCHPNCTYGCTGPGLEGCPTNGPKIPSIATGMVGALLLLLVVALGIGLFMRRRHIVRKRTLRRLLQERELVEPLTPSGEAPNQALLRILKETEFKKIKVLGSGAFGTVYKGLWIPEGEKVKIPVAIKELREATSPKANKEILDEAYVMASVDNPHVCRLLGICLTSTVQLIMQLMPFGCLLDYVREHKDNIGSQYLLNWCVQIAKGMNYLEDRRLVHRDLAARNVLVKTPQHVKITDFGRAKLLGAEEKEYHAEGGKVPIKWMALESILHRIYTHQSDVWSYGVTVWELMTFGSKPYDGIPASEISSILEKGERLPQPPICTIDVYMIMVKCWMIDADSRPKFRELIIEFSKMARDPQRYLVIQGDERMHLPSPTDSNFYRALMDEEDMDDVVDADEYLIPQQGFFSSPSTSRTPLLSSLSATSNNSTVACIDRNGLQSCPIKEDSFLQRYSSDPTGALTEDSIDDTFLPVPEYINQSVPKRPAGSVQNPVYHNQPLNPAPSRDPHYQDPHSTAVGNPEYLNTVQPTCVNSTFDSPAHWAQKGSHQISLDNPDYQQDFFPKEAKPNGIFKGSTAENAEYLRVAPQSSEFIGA
Procedure, shortened: as §1

[4] = target: BaF3 cell lines stably transfected with kinase EGFR Del/T790M/C797S (Homo sapiens, UniProt P00533, T790M/C797S, cells depend on it, form not given); test: Growth inhibition of BaF3 cell line stably transfected with kinase EGFR Del/T790M/C797S (MTS); settings: 48 h, read-out: growth inhibitory activity IC50, Del/T790M/C797S
Chain of BaF3 cell lines stably transfected with kinase EGFR Del/T790M/C797S (P00533 with tags, fused parts or gaps DEL746-750/T790M/C797S, form open): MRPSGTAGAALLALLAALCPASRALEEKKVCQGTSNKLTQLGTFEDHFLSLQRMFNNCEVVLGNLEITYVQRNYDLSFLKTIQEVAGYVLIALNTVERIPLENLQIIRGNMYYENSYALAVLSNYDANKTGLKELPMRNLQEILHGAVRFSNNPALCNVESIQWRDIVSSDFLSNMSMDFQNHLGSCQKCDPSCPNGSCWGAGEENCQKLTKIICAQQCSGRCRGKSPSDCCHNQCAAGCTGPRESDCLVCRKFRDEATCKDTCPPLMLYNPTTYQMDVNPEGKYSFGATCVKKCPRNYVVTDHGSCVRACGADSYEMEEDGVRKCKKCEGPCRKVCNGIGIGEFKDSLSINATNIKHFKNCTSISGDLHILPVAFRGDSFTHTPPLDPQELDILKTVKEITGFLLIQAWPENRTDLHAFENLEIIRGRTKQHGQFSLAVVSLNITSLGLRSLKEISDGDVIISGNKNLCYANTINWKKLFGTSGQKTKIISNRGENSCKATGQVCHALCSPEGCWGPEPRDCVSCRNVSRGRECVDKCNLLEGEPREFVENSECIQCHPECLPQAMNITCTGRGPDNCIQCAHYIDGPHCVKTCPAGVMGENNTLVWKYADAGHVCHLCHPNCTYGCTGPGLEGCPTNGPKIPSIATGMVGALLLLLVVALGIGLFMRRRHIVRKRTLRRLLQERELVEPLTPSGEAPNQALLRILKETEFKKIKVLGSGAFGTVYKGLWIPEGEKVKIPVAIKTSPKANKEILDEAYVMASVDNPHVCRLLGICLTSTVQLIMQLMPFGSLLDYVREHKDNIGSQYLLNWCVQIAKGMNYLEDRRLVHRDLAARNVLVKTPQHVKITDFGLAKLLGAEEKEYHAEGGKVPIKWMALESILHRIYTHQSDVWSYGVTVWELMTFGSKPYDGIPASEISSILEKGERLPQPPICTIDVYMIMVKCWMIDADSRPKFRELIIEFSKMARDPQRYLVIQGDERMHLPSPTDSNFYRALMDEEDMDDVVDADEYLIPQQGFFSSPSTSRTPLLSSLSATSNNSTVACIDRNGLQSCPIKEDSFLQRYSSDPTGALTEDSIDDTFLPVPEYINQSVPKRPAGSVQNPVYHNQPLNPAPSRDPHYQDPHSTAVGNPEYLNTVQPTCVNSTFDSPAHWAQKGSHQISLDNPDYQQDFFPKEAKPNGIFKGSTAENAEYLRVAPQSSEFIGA
Procedure, shortened: as §1

[5] = target: BaF3 cell lines stably transfected with kinase EGFR L858R (Homo sapiens, UniProt P00533, L858R, cells depend on it); test: Growth inhibition of BaF3 cell line stably transfected with kinase EGFR L858R (MTS); settings: 48 h, read-out: growth inhibitory activity IC50, L858R
Chain of BaF3 cell lines stably transfected with kinase EGFR L858R (P00533 whole entry L858R): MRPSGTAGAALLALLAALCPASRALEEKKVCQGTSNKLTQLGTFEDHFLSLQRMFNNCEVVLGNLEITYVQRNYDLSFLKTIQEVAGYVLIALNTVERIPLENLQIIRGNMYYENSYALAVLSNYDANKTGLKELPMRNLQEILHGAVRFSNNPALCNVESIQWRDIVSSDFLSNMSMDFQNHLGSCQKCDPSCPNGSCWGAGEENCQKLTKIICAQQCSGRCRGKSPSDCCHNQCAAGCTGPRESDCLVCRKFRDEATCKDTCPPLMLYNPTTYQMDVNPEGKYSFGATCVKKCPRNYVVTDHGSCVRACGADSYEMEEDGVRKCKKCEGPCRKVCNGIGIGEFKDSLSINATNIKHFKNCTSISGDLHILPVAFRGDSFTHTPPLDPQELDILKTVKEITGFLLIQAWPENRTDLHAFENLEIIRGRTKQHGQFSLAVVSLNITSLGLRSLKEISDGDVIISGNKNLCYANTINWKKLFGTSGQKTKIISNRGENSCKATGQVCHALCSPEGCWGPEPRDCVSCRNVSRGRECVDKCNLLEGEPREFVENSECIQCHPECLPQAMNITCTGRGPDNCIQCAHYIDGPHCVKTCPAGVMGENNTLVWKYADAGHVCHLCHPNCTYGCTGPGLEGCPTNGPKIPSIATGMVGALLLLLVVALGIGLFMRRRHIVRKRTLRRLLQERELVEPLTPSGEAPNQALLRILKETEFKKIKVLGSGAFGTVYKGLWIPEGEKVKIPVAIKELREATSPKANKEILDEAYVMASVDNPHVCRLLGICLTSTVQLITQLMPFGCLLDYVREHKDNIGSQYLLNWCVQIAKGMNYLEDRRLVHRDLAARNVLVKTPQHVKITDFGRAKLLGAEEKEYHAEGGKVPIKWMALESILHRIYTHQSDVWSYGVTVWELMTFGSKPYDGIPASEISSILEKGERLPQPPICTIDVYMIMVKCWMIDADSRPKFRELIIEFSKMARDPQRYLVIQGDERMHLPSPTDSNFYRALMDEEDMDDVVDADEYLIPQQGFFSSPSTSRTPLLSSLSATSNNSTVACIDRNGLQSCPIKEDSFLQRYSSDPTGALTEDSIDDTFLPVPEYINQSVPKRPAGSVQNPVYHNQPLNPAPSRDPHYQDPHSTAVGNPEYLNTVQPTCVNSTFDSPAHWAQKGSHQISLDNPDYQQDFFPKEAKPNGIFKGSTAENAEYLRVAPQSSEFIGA
Procedure, shortened: as §1

[6] = target: BaF3 cell lines stably transfected with kinase EGFR L858R/T790M/C797S (Homo sapiens, UniProt P00533, T790M/C797S/L858R, cells depend on it); test: Growth inhibition of BaF3 cell line stably transfected with kinase EGFR L858R/T790M/C797S (MTS); settings: 48 h, read-out: growth inhibitory activity IC50, L858R/T790M/C797S
Chain of BaF3 cell lines stably transfected with kinase EGFR L858R/T790M/C797S (P00533 whole entry T790M/C797S/L858R): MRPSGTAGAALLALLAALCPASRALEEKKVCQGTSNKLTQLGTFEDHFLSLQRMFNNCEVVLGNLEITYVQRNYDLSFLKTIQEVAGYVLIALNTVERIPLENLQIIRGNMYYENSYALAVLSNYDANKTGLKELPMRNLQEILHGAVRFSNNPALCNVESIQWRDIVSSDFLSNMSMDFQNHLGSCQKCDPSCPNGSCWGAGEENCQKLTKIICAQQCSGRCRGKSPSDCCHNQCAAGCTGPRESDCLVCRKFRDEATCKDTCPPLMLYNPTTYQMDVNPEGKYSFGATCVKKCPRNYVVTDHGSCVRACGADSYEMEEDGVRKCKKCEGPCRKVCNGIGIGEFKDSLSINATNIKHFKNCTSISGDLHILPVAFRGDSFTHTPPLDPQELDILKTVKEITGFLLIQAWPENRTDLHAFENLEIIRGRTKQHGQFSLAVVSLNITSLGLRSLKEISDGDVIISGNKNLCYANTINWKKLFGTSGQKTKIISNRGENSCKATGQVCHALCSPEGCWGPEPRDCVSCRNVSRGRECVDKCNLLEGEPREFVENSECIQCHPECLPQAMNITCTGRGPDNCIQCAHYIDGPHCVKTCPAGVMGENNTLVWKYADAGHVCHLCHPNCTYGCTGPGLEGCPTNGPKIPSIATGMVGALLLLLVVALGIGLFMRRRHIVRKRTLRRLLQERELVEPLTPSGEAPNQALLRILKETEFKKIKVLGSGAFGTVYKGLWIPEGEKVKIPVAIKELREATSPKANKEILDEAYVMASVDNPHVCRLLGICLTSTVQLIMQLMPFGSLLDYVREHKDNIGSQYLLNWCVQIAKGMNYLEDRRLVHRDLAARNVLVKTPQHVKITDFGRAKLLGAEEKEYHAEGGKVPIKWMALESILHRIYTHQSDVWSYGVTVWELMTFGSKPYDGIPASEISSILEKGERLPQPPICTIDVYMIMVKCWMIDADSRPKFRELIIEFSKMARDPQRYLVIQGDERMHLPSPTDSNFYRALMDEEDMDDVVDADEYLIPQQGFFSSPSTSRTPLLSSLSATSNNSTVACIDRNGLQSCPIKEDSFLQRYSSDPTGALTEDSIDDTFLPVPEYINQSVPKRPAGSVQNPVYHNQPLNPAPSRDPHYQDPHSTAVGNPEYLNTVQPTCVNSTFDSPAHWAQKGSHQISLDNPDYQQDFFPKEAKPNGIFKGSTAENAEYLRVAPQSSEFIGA
Procedure, shortened: as §1

GI50 [1] | GI50 [2] | GI50 [3] | GI50 [4] | GI50 [5] | GI50 [6] | Structure (SMILES)
500 to 2500 nM | 50 to 500 nM | 50 to 500 nM | 50 to 500 nM | 50 to 500 nM | ≤ 50 nM | C=Cc1cnc(Nc2cc3c(cc2C)CCN(C)C3)nc1Nc1ccc2nccnc2c1N(C)S(C)(=O)=O [II-72]
500 to 2500 nM | 500 to 2500 nM | 500 to 2500 nM | 500 to 2500 nM | 500 to 2500 nM | 50 to 500 nM | C=Cc1cnc(Nc2cc3c(cc2OC)CCN(C)C3)nc1Nc1ccc2nccnc2c1N(C)S(C)(=O)=O [II-73]
50 to 500 nM | 50 to 500 nM | 50 to 500 nM | 50 to 500 nM | ≤ 50 nM | 50 to 500 nM | C=Cc1cnc(Nc2cc3c(cc2F)CCN(C)C3)nc1Nc1ccc2nccnc2c1N(C)S(C)(=O)=O [II-74]
500 to 2500 nM | 50 to 500 nM | 50 to 500 nM | 500 to 2500 nM | 50 to 500 nM | 50 to 500 nM | C=Cc1cnc(Nc2cc3c(cc2OC(F)(F)F)CCN(C)C3)nc1Nc1ccc2nccnc2c1N(C)S(C)(=O)=O [II-76]
≤ 50 nM | ≤ 50 nM | ≤ 50 nM | 50 to 500 nM | ≤ 50 nM | ≤ 50 nM | C=Cc1cnc(Nc2ccc3c(c2)CN(C)CC3)nc1Nc1ccc2nccnc2c1N(C)S(C)(=O)=O [II-77]
50 to 500 nM | ≤ 50 nM | ≤ 50 nM | 50 to 500 nM | ≤ 50 nM | ≤ 50 nM | C=Cc1cnc(Nc2ccc3c(c2)C(C)CN(C)CC3)nc1Nc1ccc2nccnc2c1N(C)S(C)(=O)=O (stereo not drawn) [II-78]
50 to 500 nM | 50 to 500 nM | 50 to 500 nM | 500 to 2500 nM | 500 to 2500 nM | 500 to 2500 nM | C=Cc1cnc(Nc2cc(CC)c(N3CCC(N4CCN(C)CC4)CC3)cc2OC)nc1Nc1ccc2nccnc2c1S(C)(=O)=O [III-1]
50 to 500 nM | 500 to 2500 nM | 50 to 500 nM | 500 to 2500 nM | 500 to 2500 nM | 50 to 500 nM | C=Cc1cnc(Nc2cc(CC)c(N3CCC(N(C)C)CC3)cc2OC)nc1Nc1ccc2nccnc2c1S(C)(=O)=O [III-2]
500 to 2500 nM | 500 to 2500 nM | 50 to 500 nM | 500 to 2500 nM | 500 to 2500 nM | 500 to 2500 nM | C=Cc1cnc(Nc2cc(CC)c(N3CCC(N(C)C)C3)cc2OC)nc1Nc1ccc2nccnc2c1S(C)(=O)=O (stereo not drawn) [III-3]
500 to 2500 nM | 500 to 2500 nM | 50 to 500 nM | 500 to 2500 nM | 500 to 2500 nM | 500 to 2500 nM | C=Cc1cnc(Nc2cc(CC)c(N3CCN(C)CC3)cc2OC)nc1Nc1ccc2nccnc2c1S(C)(=O)=O [III-4]
500 to 2500 nM | 500 to 2500 nM | 50 to 500 nM | 500 to 2500 nM | 500 to 2500 nM | 500 to 2500 nM | C=Cc1cnc(Nc2cc(CC)c(N3CCC(N4CCN(C)CC4)CC3)cc2OC(F)(F)F)nc1Nc1ccc2nccnc2c1S(C)(=O)=O [III-5]
50 to 500 nM | 50 to 500 nM | 50 to 500 nM | 50 to 500 nM | 50 to 500 nM | 50 to 500 nM | C=Cc1cnc(Nc2cc(CC)c(N3CCC(N4CCN(C)CC4)CC3)cc2OC)nc1Nc1ccc2nccnc2c1S(=O)(=O)C(C)C [III-6]
500 to 2500 nM | 500 to 2500 nM | 50 to 500 nM | 500 to 2500 nM | 500 to 2500 nM | 500 to 2500 nM | C=Cc1cnc(Nc2cc(C)c(N3CCC(N4CCN(C)CC4)CC3)cc2OC)nc1Nc1ccc2nccnc2c1S(C)(=O)=O [III-9]
500 to 2500 nM | 500 to 2500 nM | 50 to 500 nM | 500 to 2500 nM | 500 to 2500 nM | 500 to 2500 nM | C=Cc1cnc(Nc2cc(CC)c(N3CCC(N4CCN(C)CC4)CC3)nc2OC)nc1Nc1ccc2nccnc2c1S(C)(=O)=O [III-10]
500 to 2500 nM | 500 to 2500 nM | 50 to 500 nM | 500 to 2500 nM | 500 to 2500 nM | 500 to 2500 nM | C=Cc1cnc(Nc2cc(C(C)C)c(N3CCC(N4CCN(C)CC4)CC3)cc2OC)nc1Nc1ccc2nccnc2c1S(C)(=O)=O [III-11]
50 to 500 nM | 50 to 500 nM | 50 to 500 nM | 500 to 2500 nM | 500 to 2500 nM | 50 to 500 nM | C=Cc1cnc(Nc2cc(C3CC3)c(N3CCC(N4CCN(C)CC4)CC3)cc2OC)nc1Nc1ccc2nccnc2c1S(C)(=O)=O [III-12]

GI50 [1] | GI50 [2] | GI50 [3] | GI50 [4] | GI50 [5] | GI50 [6] | Structure (SMILES)
50 to 500 nM | 50 to 500 nM | 50 to 500 nM | 500 to 2500 nM | 500 to 2500 nM | 500 to 2500 nM | C=Cc1cnc(Nc2cc(CC3CC3)c(N3CCC(N4CCN(C)CC4)CC3)cc2OC)nc1Nc1ccc2nccnc2c1S(C)(=O)=O [III-13]
50 to 500 nM | 50 to 500 nM | 50 to 500 nM | 500 to 2500 nM | 50 to 500 nM | 50 to 500 nM | C=Cc1cnc(Nc2ccc(N3CCC(N4CCN(C)CC4)CC3)c(CC)c2)nc1Nc1ccc2nccnc2c1S(C)(=O)=O [III-14]
50 to 500 nM | 500 to 2500 nM | 500 to 2500 nM | 500 to 2500 nM | 500 to 2500 nM | 500 to 2500 nM | C=Cc1cnc(Nc2cc(F)c(N3CCC(N4CCN(C)CC4)CC3)c(F)c2)nc1Nc1ccc2nccnc2c1S(C)(=O)=O [III-16]
500 to 2500 nM | 500 to 2500 nM | 50 to 500 nM | 500 to 2500 nM | 50 to 500 nM | 500 to 2500 nM | C=Cc1cnc(Nc2ccc(N3CCC(N4CCN(C)CC4)CC3)cc2OC)nc1Nc1ccc2nccnc2c1S(=O)(=O)C(C)C [III-18]
50 to 500 nM | 50 to 500 nM | 50 to 500 nM | 500 to 2500 nM | 50 to 500 nM | 50 to 500 nM | C=Cc1cnc(Nc2cc(C)c(N3CCC(N4CCN(C)CC4)CC3)cc2OC)nc1Nc1ccc2nccnc2c1S(=O)(=O)C(C)C [III-19]
500 to 2500 nM | 500 to 2500 nM | 50 to 500 nM | 500 to 2500 nM | 50 to 500 nM | 500 to 2500 nM | C=Cc1cnc(Nc2cc(C(C)C)c(N3CCC(N4CCN(C)CC4)CC3)cc2OC)nc1Nc1ccc2nccnc2c1S(=O)(=O)C(C)C [III-20]
50 to 500 nM | 50 to 500 nM | 50 to 500 nM | 50 to 500 nM | 50 to 500 nM | 50 to 500 nM | C=Cc1cnc(Nc2cc(C3CC3)c(N3CCC(N4CCN(C)CC4)CC3)cc2OC)nc1Nc1ccc2nccnc2c1S(=O)(=O)C(C)C [III-21]
500 to 2500 nM | 500 to 2500 nM | 50 to 500 nM | 500 to 2500 nM | 500 to 2500 nM | 500 to 2500 nM | C=Cc1cnc(Nc2ccc(N3CCC(N4CCN(C)CC4)CC3)cc2OC)nc1Nc1ccc2nccnc2c1S(=O)(=O)NC [IV-1]
50 to 500 nM | 50 to 500 nM | 50 to 500 nM | 50 to 500 nM | 50 to 500 nM | 50 to 500 nM | C=Cc1cnc(Nc2cc(C)c(N3CCC(N4CCN(C)CC4)CC3)cc2OC)nc1Nc1ccc2nccnc2c1S(=O)(=O)NC [IV-2]
50 to 500 nM | 50 to 500 nM | 50 to 500 nM | 50 to 500 nM | 50 to 500 nM | 50 to 500 nM | C=Cc1cnc(Nc2cc(CC)c(N3CCC(N4CCN(C)CC4)CC3)cc2OC)nc1Nc1ccc2nccnc2c1S(=O)(=O)NC [IV-3]
50 to 500 nM | 500 to 2500 nM | 50 to 500 nM | 500 to 2500 nM | 500 to 2500 nM | 50 to 500 nM | C=Cc1cnc(Nc2cc(CC)c(N3CCC(N4CCN(C)CC4)CC3)nc2OC)nc1Nc1ccc2nccnc2c1S(=O)(=O)NC [IV-4]
50 to 500 nM | 500 to 2500 nM | 50 to 500 nM | 500 to 2500 nM | 500 to 2500 nM | 500 to 2500 nM | C=Cc1cnc(Nc2cc(CC)c(N3CCC(N4CCN(C)CC4)CC3)cc2OC(F)(F)F)nc1Nc1ccc2nccnc2c1S(=O)(=O)NC [IV-5]
50 to 500 nM | 500 to 2500 nM | 50 to 500 nM | 500 to 2500 nM | 500 to 2500 nM | 500 to 2500 nM | C=Cc1cnc(Nc2cc(C(C)C)c(N3CCC(N4CCN(C)CC4)CC3)cc2OC)nc1Nc1ccc2nccnc2c1S(=O)(=O)NC [IV-6]
50 to 500 nM | 50 to 500 nM | 50 to 500 nM | 50 to 500 nM | 50 to 500 nM | 50 to 500 nM | C=Cc1cnc(Nc2cc(C3CC3)c(N3CCC(N4CCN(C)CC4)CC3)cc2OC)nc1Nc1ccc2nccnc2c1S(=O)(=O)NC [IV-7]
50 to 500 nM | 50 to 500 nM | 50 to 500 nM | 50 to 500 nM | 500 to 2500 nM | 50 to 500 nM | C=Cc1cnc(Nc2cc(CC3CC3)c(N3CCC(N4CCN(C)CC4)CC3)cc2OC)nc1Nc1ccc2nccnc2c1S(=O)(=O)NC [IV-8]
50 to 500 nM | 50 to 500 nM | ≤ 50 nM | 50 to 500 nM | 50 to 500 nM | 50 to 500 nM | C=Cc1cnc(Nc2ccc(N3CCC(N4CCN(C)CC4)CC3)c(CC)c2)nc1Nc1ccc2nccnc2c1S(=O)(=O)NC [IV-9]
